We go through 25 molecules from patent US9365541B2, “Compounds for use in the treatment of parasitic diseases” (IRBM—SCIENCE PARK S.P.A., priority 2012, dated 2016).

Assay [1] has as its system Plasmodium falciparum 3D7. Description: P. falciparum growth inhibition assay (Pf-LDH). In kind it is cell-based. Conditions: Plasmodium falciparum. The method, boiled down:
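Compounds were tested against 72 h cultures of the 3D7 strain (0.25% parasitemia, 2% hematocrit, 37° C, low-oxygen gas). Parasite growth was quantified as lactate dehydrogenase activity via NBT reduction, absorbance 650 nm, after freezing and thawing.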

For the next assay, the target named is T1, human HDAC1 (Homo sapiens, UniProt Q13547).
T1 construct: made in house; host or cells: HeLa (ATCC CCL-2), mammalian cells
T1 sequence (Q13547 whole entry): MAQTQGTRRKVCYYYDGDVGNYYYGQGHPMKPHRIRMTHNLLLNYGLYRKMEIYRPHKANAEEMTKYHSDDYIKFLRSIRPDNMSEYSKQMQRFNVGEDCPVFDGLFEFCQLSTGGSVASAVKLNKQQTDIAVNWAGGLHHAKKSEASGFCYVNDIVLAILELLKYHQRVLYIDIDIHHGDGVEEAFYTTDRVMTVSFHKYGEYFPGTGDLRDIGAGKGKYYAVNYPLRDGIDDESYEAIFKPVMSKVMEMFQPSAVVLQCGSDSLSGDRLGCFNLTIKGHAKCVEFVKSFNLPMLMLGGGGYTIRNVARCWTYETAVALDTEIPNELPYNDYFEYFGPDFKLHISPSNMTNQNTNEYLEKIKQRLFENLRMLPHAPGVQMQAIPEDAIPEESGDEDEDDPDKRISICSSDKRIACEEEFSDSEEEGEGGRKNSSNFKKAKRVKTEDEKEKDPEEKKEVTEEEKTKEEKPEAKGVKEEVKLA
Description: Homo sapiens HDAC1 inhibition assay (Fluor-de-Lys, enzymatic). In kind it is biochemical. As to conditions: human HDAC enzymatic assay; read-out: hHDAC IC50. The gist of the method: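 Fluorogenic deacetylation read-out: trypsin developer, supplemented with 2 μM final TSA as stop, releases fluorophore from deacetylated substrate.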

[2] abbreviates: Erythrocyte, P. falciparum 3D7 infected erythrocytes, 72 h incubation, PfLDH readout.

pEC50, pIC50: −log10 of the molar value. A value given as a limit tells only on which side of the number the result lay.

In assay [1] (setting [2]), `CNC(=O)CCCCC[C@H](NC(=O)c1nnc(C)o1)c1ncc(-c2ccc3ccccc3c2)[nH]1` [Entry 203, (S)-5-methyl-N-(7-(methylamino)-1-(5-(naphthalen-2-yl)-1H-imidazol-2-yl)-7-oxoheptyl)-1,3,4-oxadiazole-2-carboxamide] had a negative-log EC50 (pEC50) of 5.30 to 6.00. For the same molecule, the negative logarithm of the IC50 (pIC50) on human HDAC1 was < 5.30.

Take `CNC(=O)CCCCC[C@H](NC(=O)C12CCN(CC1)CC2)c1ncc(-c2cc3ccccc3[nH]c2=O)[nH]1` [Entry 204, (S)-N-(7-(methylamino)-7-oxo-1-(5-(2-oxo-1,2-dihydroquinolin-3-yl)-1H-imidazol-2-yl)heptyl)quinuclidine-4-carboxamide]: the pEC50 in assay [1] (setting [2]) is < 5.30. The pIC50 on human HDAC1 is 5.30 to 6.00.

With `CNC(=O)CCCCC[C@H](NC(=O)c1cncs1)c1ncc(-c2ccc(-c3ccccc3)s2)[nH]1` [Entry 205, (S)-N-(7-(methylamino)-7-oxo-1-(5-(5-phenylthiophen-2-yl)-1H-imidazol-2-yl)heptyl)thiazole-5-carboxamide], in assay [1] (setting [2]), the pEC50 was 5.30 to 6.00. The pIC50 on human HDAC1 is 5.30 to 6.00.

As to `CNC(=O)CCCCC[C@H](NC(=O)[C@@H]1CCCN2CCCC[C@H]12)c1ncc(-c2ccc3ccncc3c2)[nH]1` [Entry 206, (1R,9aR)-N-((S)-1-(5-(isoquinolin-7-yl)-1H-imidazol-2-yl)-7-(methylamino)-7-oxoheptyl)octa-hydro-1H-quinolizine-1-carboxamide], the pEC50 in assay [1] (setting [2]) was 5.30 to 6.00. In addition, on human HDAC1, the pIC50 is 5.30 to 6.00.

With `CNC(=O)CCCCC[C@H](NC(=O)Cc1ncccn1)c1ncc(-c2ccc3ccncc3c2)[nH]1` [Entry 207], in assay [1] (setting [2]), the pEC50 is 5.30 to 6.00. The negative logarithm of the IC50 (pIC50) on human HDAC1 was < 5.30.

Consider `CNC(=O)CCCCC[C@H](NC(=O)Cn1cc2ccccc2n1)c1ncc(-c2ccc3ccncc3c2)[nH]1` [Entry 208, (S)-7-(2-(2H-indazol-2-yl)acetamido)-7-(5-(isoquinolin-7-yl)-1H-imidazol-2-yl)-N-methyl-heptanamide], for which, in assay [1] (setting [2]), the pEC50 is > 6.00. Moreover, the pIC50 on human HDAC1 is > 6.00.

In the case of `CNC(=O)CCCCC[C@H](NC(=O)c1cscn1)c1ncc(-c2ccc(-c3ccn(C)n3)cc2)[nH]1` [Entry 209, (S)-N-(1-(5-(4-(1-methyl-1H-pyrazol-3-yl)phenyl)-1H-imidazol-2-yl)-7-(methylamino)-7-oxoheptyl)thiazole-4-carboxamide], in assay [1] (setting [2]), the negative-log EC50 (pEC50) was < 5.30. For the same molecule, the pIC50 at human HDAC1 is < 5.30.

In the case of `CNC(=O)CCCCC[C@H](NC(=O)c1cnsc1)c1ncc(-c2ccc(-c3ccn(C)n3)cc2)[nH]1` [Entry 210], the pEC50 in assay [1] (setting [2]) was > 6.00. The pIC50 on human HDAC1 is 5.30 to 6.00.

`CNC(=O)CCCCC[C@H](NC(=O)Cc1ncccn1)c1ncc(-c2ccc(-c3ccn(C)n3)cc2)[nH]1` [Entry 211]: the pEC50 in assay [1] (setting [2]) was < 5.30. The pIC50 at human HDAC1 was < 5.30.

Take `CNC(=O)CCCCC[C@H](NC(=O)c1cnn(C)c1)c1ncc(-c2ccc(-c3ccn(C)n3)cc2)[nH]1` [Entry 212, (S)-1-methyl-N-(1-(5-(4-(1-methyl-1H-pyrazol-3-yl)phenyl)-1H-imidazol-2-yl)-7-(methylamino)-7-oxoheptyl)-1H-pyrazole-4-carboxamide]: the pEC50 in assay [1] (setting [2]) is > 6.00. Also, the negative logarithm of the IC50 (pIC50) at human HDAC1 is 5.30 to 6.00.

`CNC(=O)CCCCC[C@H](NC(=O)c1ccnn1C)c1ncc(-c2ccc(-c3ccn(C)n3)cc2)[nH]1` [Entry 213, (S)-1-methyl-N-(1-(5-(4-(1-methyl-1H-pyrazol-3-yl)phenyl)-1H-imidazol-2-yl)-7-(methylamino)-7-oxoheptyl)-1H-pyrazole-5-carboxamide] gave a pEC50 in assay [1] (setting [2]) of 5.30 to 6.00. Moreover, the negative-log IC50 (pIC50) at human HDAC1 is < 5.30.

Molecule `CNC(=O)CCCCC[C@H](NC(=O)c1ccn(C(F)F)n1)c1ncc(-c2ccc(-c3ccn(C)n3)cc2)[nH]1` [Entry 214, (S)-1-(difluoromethyl)-N-(1-(5-(4-(1-methyl-1H-pyrazol-3-yl)phenyl)-1H-imidazol-2-yl)-7-(methylamino)-7-oxoheptyl)-1H-pyrazole-3-carboxamide] had a negative logarithm of the EC50 (pEC50) in assay [1] (setting [2]) of 5.30 to 6.00. Besides, the negative-log IC50 (pIC50) at human HDAC1 was < 5.30.

`CNC(=O)CCCCC[C@H](NC(=O)c1cc(C)nn1C)c1ncc(-c2ccc(-c3ccn(C)n3)cc2)[nH]1` [Entry 215, (S)-1,3-dimethyl-N-(1-(5-(4-(1-methyl-1H-pyrazol-3-yl)phenyl)-1H-imidazol-2-yl)-7-(methylamino)-7-oxoheptyl)-1H-pyrazole-5-carboxamide] showed a negative logarithm of the EC50 (pEC50) in assay [1] (setting [2]) of 5.30 to 6.00. Moreover, the pIC50 on human HDAC1 is < 5.30.

In turn, `CNC(=O)CCCCC[C@H](NC(=O)c1cc(C)n(C)n1)c1ncc(-c2ccc(-c3ccn(C)n3)cc2)[nH]1` [Entry 216, (S)-1,5-dimethyl-N-(1-(5-(4-(1-methyl-1H-pyrazol-3-yl)phenyl)-1H-imidazol-2-yl)-7-(methylamino)-7-oxoheptyl)-1H-pyrazole-3-carboxamide] showed a pEC50 in assay [1] (setting [2]) of 5.30 to 6.00. In addition, the pIC50 on human HDAC1 was < 5.30.

For `CNC(=O)CCCCC[C@H](NC(=O)c1cc(C(C)(C)C)nn1C)c1ncc(-c2ccc(-c3ccn(C)n3)cc2)[nH]1` [Entry 217, (S)-3-(tert-butyl)-1-methyl-N-(1-(5-(4-(1-methyl-1H-pyrazol-3-yl)phenyl)-1H-imidazol-2-yl)-7-(methylamino)-7-oxoheptyl)-1H-pyrazole-5-carboxamide], the pEC50 in assay [1] (setting [2]) is 5.30 to 6.00. Besides, the negative logarithm of the IC50 (pIC50) at human HDAC1 was 5.30 to 6.00.

As to `Cn1ccc(-c2ccc(-c3cnc([C@H](CCCCCC(N)=O)NC(=O)c4cncs4)[nH]3)cc2)n1` [Entry 218, (S)-N-(7-amino-1-(5-(4-(1-methyl-1H-pyrazol-3-yl)phenyl)-1H-imidazol-2-yl)-7-oxoheptyl)thiazole-5-carboxamide], the pEC50 in assay [1] (setting [2]) was > 6.00. Besides, the negative-log IC50 (pIC50) on human HDAC1 was > 6.00.

As for `CNC(=O)CCCCC[C@H](NC(=O)c1cncs1)c1ncc(-c2ccc3ccnc(OC)c3c2)[nH]1` [Entry 219, (S)-N-(1-(5-(1-methoxyisoquinolin-7-yl)-1H-imidazol-2-yl)-7-(methylamino)-7-oxoheptyl)thiazole-5-carboxamide], the negative-log EC50 (pEC50) in assay [1] (setting [2]) is 5.30 to 6.00. For the same molecule, the negative logarithm of the IC50 (pIC50) at human HDAC1 was 5.30 to 6.00.

Take `CNC(=O)CCCCC[C@H](NS(=O)(=O)c1ccc(C#N)cc1)c1ncc(-c2cc3ccccc3nc2OC)[nH]1` [Entry 220]: in assay [1] (setting [2]), the pEC50 was > 6.00. On human HDAC1, the pIC50 was > 6.00.

For `CNC(=O)CCCCC[C@H](NC(=O)c1cncs1)c1ncc(-c2ccc(-c3ccn[nH]3)cc2)[nH]1` [Entry 221, (S)-N-(1-(5-(4-(1H-pyrazol-5-yl)phenyl)-1H-imidazol-2-yl)-7-(methylamino)-7-oxoheptyl)thiazole-5-carboxamide], in assay [1] (setting [2]), the pEC50 was > 6.00. Moreover, at human HDAC1, the negative-log IC50 (pIC50) is 5.30 to 6.00.

In turn, `CNC(=O)CCCCC[C@H](NC(=O)c1cncs1)c1ncc(-c2ccc(-c3ccn(C)n3)cc2)o1` [Entry 222, (S)-N-(1-(5-(4-(1-methyl-1H-pyrazol-3-yl)phenyl)oxazol-2-yl)-7-(methylamino)-7-oxoheptyl)thiazole-5-carboxamide] gave a pEC50 in assay [1] (setting [2]) of 5.30 to 6.00. Also, on human HDAC1, the pIC50 is < 5.30.

In turn, `CNC(=O)CCCCC[C@H](NC(=O)c1cnn(C(C)C)c1)c1ncc(-c2ccc(-c3ccn(C)n3)cc2)o1` [Entry 223, (S)-1-isopropyl-N-(1-(5-(4-(1-methyl-1H-pyrazol-3-yl)phenyl)oxazol-2-yl)-7-(methylamino)-7-oxoheptyl)-1H-pyrazole-4-carboxamide] gave a pEC50 in assay [1] (setting [2]) of 5.30 to 6.00. The pIC50 on human HDAC1 was < 5.30.

`CNC(=O)CCCCC[C@H](NC(=O)c1cnn(C)c1)c1ncc(-c2ccc(-c3ccn(C)n3)cc2)o1` [Entry 224, (S)-1-methyl-N-(1-(5-(4-(1-methyl-1H-pyrazol-3-yl)phenyl)oxazol-2-yl)-7-(methylamino)-7-oxoheptyl)-1H-pyrazole-4-carboxamide]: the pEC50 in assay [1] (setting [2]) was 5.30 to 6.00. Moreover, the pIC50 on human HDAC1 is < 5.30.

In assay [1] (setting [2]), `CNC(=O)CCCCC[C@H](NC(=O)c1cnc(C)s1)c1ncc(-c2ccc(-c3ccn(C)n3)cc2)o1` [Entry 225, (S)-2-methyl-N-(1-(5-(4-(1-methyl-1H-pyrazol-3-yl)phenyl)oxazol-2-yl)-7-(methylamino)-7-oxoheptyl)thiazole-5-carboxamide] showed a pEC50 of 5.30 to 6.00. In addition, the pIC50 at human HDAC1 was < 5.30.

In turn, `CNC(=O)CCCCC[C@H](NC(=O)c1cnsc1)c1ncc(-c2ccc(-c3ccn(C)n3)cc2)o1` [Entry 226, (S)-N-(1-(5-(4-(1-methyl-1H-pyrazol-3-yl)phenyl)oxazol-2-yl)-7-(methylamino)-7-oxoheptyl)isothiazole-4-carboxamide] had a pEC50 in assay [1] (setting [2]) of 5.30 to 6.00. Moreover, on human HDAC1, the negative-log IC50 (pIC50) was < 5.30.

Turning to `CNC(=O)CCCCC[C@H](NC(=O)C12CCN(CC1)CC2)c1ncc(-c2ccc3ccccc3c2)[nH]1` [compound 126, (S)-N-(7-(methylamino)-1-(5-(naphthalen-2-yl)-1H-imidazol-2-yl)-7-oxo-heptyl)quinuclidine-4-carboxamide], the pEC50 in assay [1] (setting [2]) is > 6.00; in assay [1] (P. falciparum 3D7, n=11), 6.53. For the same molecule, the pIC50 on human HDAC1 was > 6.00.
